Legend:
[1] = tested on: PBMCs from patients with metastatic breast cancer; assay: Flow cytometry of immune cell subsets in PBMCs of patients with metastatic breast cancer; type: cell-based, human; conditions: 657 nM, 2.5 h/day, 2 days
Description: Peripheral blood mononuclear cells (PBMCs) from 7 patients with metastatic breast cancer were exposed to VRx-3996 daily (657 nM, 2.5 h/day) or DMSO control for 2 consecutive days and then examined by flow cytometry for different immune cell subsets analyzed: 9 standard immune cell subsets, 114 subsets relating to maturation/function.

[2] = tested on: HDAC; assay: Immunoblot for acetyl-lysine 9 on Histone H3 (HDAC activity) in PC3 cells; type: cell-based; conditions: 657 nM, 2.5 h
Description: (§1) VRx-3996 was tested for its ability to inhibit HDAC activity in PC3 (prostate) and MDA-MB-231 (triple negative breast cancer) carcinoma cells. Cells were exposed to for 2.5 h to VRx-3996 (657 nM), or DMSO prior to being examined for the presence of acetyl-lysine 9 on Histone H3 by immunoblot.

[3] = tested on: PC3 cells; assay: NK cell lysis assay (In-111 release) with PC3 cells as target; type: cell-based; conditions: 657 nM, 2.5 h/day, 4 days, targets on day 5, primary NK cells and HaNK
Description: Tumor cell lines PC3 and MDA-MB-231, treated with VRx-3996, were tested for their ability to be killed by different primary NK cells and the NK cell line HaNK (NK cells with a high-affinity Fc receptor which has a mutation at 158V of human FcγRIIIa). PC3 and MDA-MB-231 cells were exposed to DMSO or CHR-3996 daily (657 nM, 2.5 h/day) for 4 consecutive days, prior to being used as targets on day 5 for direct NK killing in an overnight standard In-111 release lysis assay. Primary NK cells from human PBMCs of 2 healthy donors (isolated by negative selection), and NKs rested for 24 h at 37 C° and 5% CO2, or pre-exposed to ALT803 (25 ng/ml) for 24 h, were used. HaNK cells were used 24 h post 10 Gy radiation exposure. NK cells were plated and varying effector to target ratios (E:T) against PC3 cells (FIG. 3) and MDA-MB-231 cells (FIG. 4).

[4] = tested on: MDA-MB-231 cells; assay: Cell surface phenotype of MDA-MB-231 cells by flow cytometry; type: cell-based; conditions: 657 nM, 2.5 h/day, 4 days
Description: (§2) After treatment with DMSO (vehicle) or VRx-3996, PC3 or […] cells were analyzed for their cell surface phenotype. Cells were exposed to CHR-3996 daily (657 nM, 2.5 h/day) or DMSO control for 4 consecutive days; on day 5, cells were examined by flow cytometry for cell-surface expression of proteins associated with immune recognition, stimulation, and inhibition. Overall VRx-3996 led to several changes in both cell lines.

[5] = tested on: PC3 cells; assay: Cell surface phenotype of PC3 cells by flow cytometry; type: cell-based; conditions: 657 nM, 2.5 h/day, 4 days
Description: as §2

[6] = tested on: HDAC; assay: Immunoblot for acetyl-lysine 9 on Histone H3 (HDAC activity) in MDA-MB-231 cells; type: cell-based; conditions: 657 nM, 2.5 h
Description: as §1

[7] = PBMCs of patients with metastatic cancer

O=C(NO)c1cnc(N2CC3C(C2)C3NCc2ccc3cc(F)ccc3n2)nc1 (centres unmarked) [VRx-3996, 2-(6-{[(6-Fluoroquinolin-2-yl)methyl]amino}-3-azabicyclo[3.1.0]hex-3-yl)-N-hydroxypyrimidine-5-carboxamide]
FoxP3+ regulatory T cells in PBMCs [1, 7]: Reduces
FoxP3 in T regulatory subsets (FACS, FIGS. 5A and 5B) [1, 7]: reduced
B cell median frequency ([1]; PBMCs, 7 patients): 6.37 % of PBMC
B cells PDL1+ median frequency ([1]; PBMCs, 7 patients): 0.55 % of PBMC
CD4 CM PD1+ median frequency ([1]; PBMCs, 7 patients): 3.24 % of PBMC
CD4 median frequency ([1]; PBMCs, 7 patients): 42.36 % of PBMC
CD8 Tim3+ median frequency ([1]; PBMCs, 7 patients): 0.06 % of PBMC
CD8 median frequency ([1]; PBMCs, 7 patients): 17.67 % of PBMC
CD8 naive median frequency ([1]; PBMCs, 7 patients): 4.99 % of PBMC
CD49d neg Treg median frequency ([1]; PBMCs, 7 patients): 5.66 % of CD4
ICOS+ CD4 median frequency ([1]; PBMCs, 7 patients): 1.26 % of PBMC
ICOS+ PD-1+ CD4 median frequency ([1]; PBMCs, 7 patients): 0.5 % of PBMC
ICOS+ Treg median frequency ([1]; PBMCs, 7 patients): 2.31 % of CD4
MDSC CD16+ median frequency ([1]; PBMCs, 7 patients): 2.19 % of PBMC
MDSC median frequency ([1]; PBMCs, 7 patients): 5.32 % of PBMC
NK median frequency ([1]; PBMCs, 7 patients): 3.46 % of PBMC
NKT PD1+ median frequency ([1]; PBMCs, 7 patients): 0.75 % of PBMC
NKT median frequency ([1]; PBMCs, 7 patients): 4.24 % of PBMC
PD-1+ Treg median frequency ([1]; PBMCs, 7 patients): 2.31 % of CD4
Total Treg median frequency ([1]; PBMCs, 7 patients): 9.39 % of CD4
Treg CD49d neg median frequency ([1]; PBMCs, 7 patients): 0.27 % of PBMC
Treg ICOS+ median frequency ([1]; PBMCs, 7 patients): 0.14 % of PBMC
Treg median frequency ([1]; PBMCs, 7 patients): 0.47 % of PBMC
cDC median frequency ([1]; PBMCs, 7 patients): 0.11 % of PBMC
dnMDSC PDL1+ median frequency ([1]; PBMCs, 7 patients): 0.07 % of PBMC
dnMDSC median frequency ([1]; PBMCs, 7 patients): 0.36 % of PBMC
mMDSC CD16+ median frequency ([1]; PBMCs, 7 patients): 2.08 % of PBMC
mMDSC median frequency ([1]; PBMCs, 7 patients): 4.15 % of PBMC
pDC median frequency ([1]; PBMCs, 7 patients): <0.01 % of PBMC
Histone H3 deacetylation (acetyl-lysine 9 on Histone H3) [2]: inhibits Histone H3 deacetylation
Sensitization of PC3 cells to NK lysis [3]: Sensitizes PC3 Cells to NK Lysis
CD122 % Pos ([4]; flow cytometry day 5): 81.9%
CD122 GeoMFI ([4]; flow cytometry day 5): 735
CD155 % Pos ([4]; flow cytometry day 5): 96.1%
CD155 GeoMFI ([4]; flow cytometry day 5): 2937
EGFR % Pos ([4]; flow cytometry day 5): 81.9%
EGFR GeoMFI ([4]; flow cytometry day 5): 735
Fas % Pos ([4]; flow cytometry day 5): 27.3%
Fas GeoMFI ([4]; flow cytometry day 5): 190
HLA-A, B, C % Pos ([4]; flow cytometry day 5): 96.2%
HLA-A, B, C GeoMFI ([4]; flow cytometry day 5): 2470
ICAM-1 % Pos ([4]; flow cytometry day 5): 96.2%
ICAM-1 GeoMFI ([4]; flow cytometry day 5): 8554
MIC-A/B % Pos ([4]; flow cytometry day 5): 94.6%
MIC-A/B GeoMFI ([4]; flow cytometry day 5): 2880
PD-L1 % Pos ([4]; flow cytometry day 5): 80%
PD-L1 GeoMFI ([4]; flow cytometry day 5): 303
TRAIL-R1(DR4) % Pos ([4]; flow cytometry day 5): 27.1%
TRAIL-R1(DR4) GeoMFI ([4]; flow cytometry day 5): 107
ULBP-2/5/6 % Pos ([4]; flow cytometry day 5): 75.9%
ULBP-2/5/6 GeoMFI ([4]; flow cytometry day 5): 365
% change CD122 % Pos ([4]; vs DMSO): −10%
% change CD122 GeoMFI ([4]; vs DMSO): 119%
% change CD155 % Pos ([4]; vs DMSO): <5%
% change CD155 GeoMFI ([4]; vs DMSO): 197%
% change EGFR % Pos ([4]; vs DMSO): −10%
% change EGFR GeoMFI ([4]; vs DMSO): 119%
% change Fas % Pos ([4]; vs DMSO): −23%
% change Fas GeoMFI ([4]; vs DMSO): 184%
% change HLA-A, B, C % Pos ([4]; vs DMSO): <5%
% change HLA-A, B, C GeoMFI ([4]; vs DMSO): 142%
% change ICAM-1 % Pos ([4]; vs DMSO): <5%
% change ICAM-1 GeoMFI ([4]; vs DMSO): 546%
% change MIC-A/B % Pos ([4]; vs DMSO): 6%
% change MIC-A/B GeoMFI ([4]; vs DMSO): 411%
% change PD-L1 % Pos ([4]; vs DMSO): <5%
% change PD-L1 GeoMFI ([4]; vs DMSO): 175%
% change TRAIL-R1(DR4) % Pos ([4]; vs DMSO): 293%
% change TRAIL-R1(DR4) GeoMFI ([4]; vs DMSO): 1290%
% change ULBP-2/5/6 % Pos ([4]; vs DMSO): 6.5%
% change ULBP-2/5/6 GeoMFI ([4]; vs DMSO): 244%
CD155 % Pos ([5]; flow cytometry day 5): 95.9%
CD155 GeoMFI ([5]; flow cytometry day 5): 742
EGFR % Pos ([5]; flow cytometry day 5): 75.6%
EGFR GeoMFI ([5]; flow cytometry day 5): 291
Fas % Pos ([5]; flow cytometry day 5): 35.3%
Fas GeoMFI ([5]; flow cytometry day 5): 79
HLA-A, B, C % Pos ([5]; flow cytometry day 5): 94.4%
HLA-A, B, C GeoMFI ([5]; flow cytometry day 5): 1198
ICAM-1 % Pos ([5]; flow cytometry day 5): 66.8%
ICAM-1 GeoMFI ([5]; flow cytometry day 5): 129
MIC-A/B % Pos ([5]; flow cytometry day 5): 48%
MIC-A/B GeoMFI ([5]; flow cytometry day 5): 124
PD-L1 % Pos ([5]; flow cytometry day 5): 28%
PD-L1 GeoMFI ([5]; flow cytometry day 5): 43
ULBP-3 % Pos ([5]; flow cytometry day 5): 7.6%
ULBP-3 GeoMFI ([5]; flow cytometry day 5): 31
% change CD155 % Pos ([5]; vs DMSO): <5%
% change CD155 GeoMFI ([5]; vs DMSO): 50%
% change EGFR % Pos ([5]; vs DMSO): −15%
% change EGFR GeoMFI ([5]; vs DMSO): −33%
% change Fas % Pos ([5]; vs DMSO): −32%
% change Fas GeoMFI ([5]; vs DMSO): −7%
% change HLA-A, B, C % Pos ([5]; vs DMSO): <5%
% change HLA-A, B, C GeoMFI ([5]; vs DMSO): 77%
% change ICAM-1 % Pos ([5]; vs DMSO): <5%
% change ICAM-1 GeoMFI ([5]; vs DMSO): 32%
% change MIC-A/B % Pos ([5]; vs DMSO): −20%
% change MIC-A/B GeoMFI ([5]; vs DMSO): 7%
% change PD-L1 % Pos ([5]; vs DMSO): −39%
% change PD-L1 GeoMFI ([5]; vs DMSO): −27%
% change ULBP-3 % Pos ([5]; vs DMSO): −88%
% change ULBP-3 GeoMFI ([5]; vs DMSO): −75%
Histone H3 deacetylation (acetyl-lysine 9 on Histone H3) [6]: inhibits Histone H3 deacetylation
